The results in this text go back to a melting point compilation (Tetko et al.; mined from patent text by program, amines drawn as free bases though some values may be those of a salt).

For `COc1ccc(Cn2ccn(C3CCc4ccccc4C3)c2=S)cc1OC` (stereo unspecified), the melting point (commonly the temperature of the solid-liquid transition) fell in the range of 129 to 131 °C.
On to `CN1CCC(C2(O)c3sccc3CCn3ccnc32)CC1` (stereo unspecified), for which the melting point was 177 °C.
Then `Nc1cc(C(=O)O)cc(OCc2ccsc2)c1-c1ccccc1`, with 139 to 140 °C; and `Cc1cc(C(=O)Nc2cc(Oc3ccc4nc(NC(=O)C5CC5)cn4n3)ccc2C)n(C)n1`, with 223 °C; and `Cc1ccc(N2CC(COc3ccc(C(=O)O)cc3)CC2=O)cc1` (stereo unspecified), with 212 to 213 °C.
With `CC1(C)CCC(C)(C)c2cc(NC(=O)c3ccc(C(=O)O)cc3O)ccc21`, the melting point fell in the range of 286 to 287 °C.
In turn, `CN1CC=C(c2cn(C)c3ccc(NS(C)(=O)=O)cc23)CC1` returned a melting point of 198 to 202 °C.
With `CONS(=O)(=O)c1ccc(Cl)c(C(F)(F)F)c1` the figure was 88 to 90.5 °C; with `COc1ccc(S(=O)(=O)N(C)C)cc1-c1ccc(CN2CCCCC2)[nH]1`, 78 to 79 °C; with `NCC1Cc2cc(-c3ccccc3F)cc(F)c2O1` (stereo unspecified), over 250 °C.
With `CCOC(C#Cc1cc(OC)c(OC)c(OC)c1)OCC` the figure was 62.5 to 63 °C; with `COCCOc1ccc(/C=C/C(=O)O)c(OCC2CC2)c1`, 118 to 119 °C; with `COc1ccc(COC(=O)c2cc([N+](=O)[O-])c3ccccc3c2OS(=O)(=O)C(F)(F)F)cc1`, 74 to 75 °C.
The compound `CCN(CC)c1ccc2cc(C(=O)OCCCCCCO)c(=O)oc2c1` gave a melting point of 85 to 86 °C.
As to `CS(=O)(=O)c1ccc(-n2nc(CCCO)cc2-c2ccccc2)cc1`, the melting point lay in the range of 120 to 123 °C.
Compound `O=[N+]([O-])c1ccc(CN2CC=C(/C=C/c3ccccc3)CC2)cc1` yielded a melting point of 142 to 144 °C.
`CCOC(=O)C1=C(COCCCCO)NC(C)=C(C(=O)OC)C1c1cccc(Cl)c1Cl` (stereo unspecified) gave a melting point of 103 to 104 °C.
`Oc1ccc(C2OCC3(CO2)COC(c2ccc(O)cc2)OC3)cc1` (stereo unspecified) yielded a melting point of 251 to 253 °C.
`COc1cc(Nc2nccc(S(=O)(=O)c3ccccc3)n2)cc(OC)c1OC` returned a melting point of 110 °C.
Consider `CCOc1ccccc1-c1nc2c(C)nn(C)c2c(=O)[nH]1`, for which the melting point fell in the range of 201 to 204 °C.
Compound `O=C(O)C1=Cc2cc(CO)ccc2OC1C(F)(F)F` (stereo unspecified) displayed a melting point of 178 to 181 °C.
For the compound `NC(=O)[C@H]1CCc2c(sc3nc(CN4C(=O)COC4=O)c(Cl)c(-c4ccc(O)cc4)c23)C1`, the melting point lay within 317 to 318 °C.
`O=C(O)Cc1ccc(NC(=O)C(COc2ccccc2Cl)NS(=O)(=O)c2ccc(Cl)cc2)cc1` (racemic): the melting point fell in the range of 190 to 191 °C.
With `CC(C)(C)NNC(=O)c1nn(-c2ccc(F)cc2F)c2c1C1CCC2C1` (stereo unspecified), the melting point was 140 to 142 °C.
As for `Cc1nnc2n1-c1ccc([N+](=O)[O-])cc1C(c1ccccc1F)=NC2(C)C`, the melting point was found to be 195 °C.
In turn, `CN1C(=O)C(C(=O)Nc2ccc(F)cc2)S(=O)(=O)c2ccccc21` (stereo unspecified) returned a melting point of 189 to 192 °C.
Compound `CC1=C(c2ccc(F)c(F)c2)C(=NO)CC1` registered a melting point of 155 to 156 °C.
In turn, `Cc1ccc(Sc2ccccc2C(=O)O)c([N+](=O)[O-])c1` had a melting point of 189 to 191 °C.
`OC1(c2ccc(Cl)c(Cl)c2)c2ccccc2C2=NCCN21` (stereo unspecified) registered a melting point of 203 to 205 °C.
Then `O=C1c2c(Cl)cccc2-n2cnc(-c3nc(CN(CC4CC4)CC4CC4)no3)c2[C@@H]2CCN12`, with 155 to 160 °C; and `COc1cc(N)c(SCc2ccccc2)cc1OC`, with 86 to 88 °C.
As for `COC(=O)c1nn(-c2c(Cl)cc(C(F)(F)F)cc2Cl)c(OC)c1SC(F)(F)F`, the melting point was 97 to 98 °C.
For `Cc1c(C=CC(=O)O)cccc1[N+](=O)[O-]`, the melting point turned out to be 222 °C.
Then `COc1ccc(S(=O)(=O)N(CC(N)=O)c2ccc(Cl)cc2C(O)c2ccccc2Cl)c(OC)c1` (stereo unspecified), with 158 °C; and `CC(C)=CCCC(C)C1CCC2C3CCC4CC(O)CCC4(C)C3CCC12C` (stereo unspecified), with 117 to 118 °C; and `Cc1cccc(-n2nc(C)cc2-c2ccnc(N)c2)c1`, with 124 to 125 °C.
As for `C(=Cc1ccc(C=Cc2ccccc2)c2ccccc12)c1ccccc1`, the melting point amounted to 189 °C.
On to `CN1CN(C)C(=N[N+](=O)[O-])N(Cc2cnc(Cl)s2)C1`, for which the melting point fell in the range of 125 to 126 °C.
`CC(C)Cn1c(C(O)c2ccccc2)nc2c(N)nc3ccccc3c21` (stereo unspecified) yielded a melting point of 125 to 140 °C.
`Fc1ccc(C(c2ccc(OCc3ccccc3)cc2)C(c2ccccc2)C(F)(F)F)cc1` (stereo unspecified) gave a melting point of 111 to 114 °C.
For `Cc1ccc(NC(=O)c2cc(Br)c(Br)s2)cc1C`, the melting point fell in the range of 216 to 217 °C.
The compound `Cc1cc(C(O)(C=Cc2ccc(Cl)cc2)C(F)(F)F)ccc1N` (stereo unspecified) registered a melting point of 126 to 129 °C.
For the compound `CC(C)(O)c1ccc(CNC(=O)c2cccnc2Oc2ccc(F)cc2F)cc1`, the melting point lay in the range of 92 to 94 °C.
As for `O=c1[nH]c2ncc(-c3ccc(O)cc3)nc2n1C1CCCCC1`, the melting point lay within 318 to 320 °C.
Regarding `CCCC(C)(C)c1cc(N2CCC(C)C2=O)no1` (stereo unspecified), the melting point lay in the range of 30 to 31 °C.
`CCC(c1cnc2c(C)c(NC(=O)c3ccc(-c4ccc(F)cc4)cc3)ccc2c1)N1CCCC1` (stereo unspecified) showed a melting point of 188 to 191 °C.
Consider `COc1ccc(COc2nn(Cc3ccccc3)cc2CO)cc1OCc1nc(-c2ccco2)oc1C`, for which the melting point fell in the range of 108 to 109 °C.
With `CN1CCN(c2cccc(-c3cnn4c(N)c(-c5cccc(Br)c5)cnc34)c2)CC1` the figure was 195 to 197 °C; with `COc1cc(OC)c(-c2nc3ncccc3[nH]2)s1`, 93 to 96 °C; with `COC(=O)C=Nc1cc(Cl)ccc1C(=O)O`, 201 to 203 °C.
`O=C(O)/C=C(/c1ccccc1)c1ccc2ccccc2c1` displayed a melting point of 170 to 172 °C.
The compound `O=C(Oc1ccccc1)OC1c2ccccc2C(=O)N1c1ccc2ccc(Cl)nc2n1` (stereo unspecified) displayed a melting point of 235 °C.
With `CCC1CCC2(O)C3CC=C4CC(O)CCC4(C)C3CC(O)C12C` (stereo unspecified) the figure was 228 to 235 °C; with `O=C(O)COc1ccc(CCc2nc(-c3ccccc3)c(-c3ccccc3)o2)cc1`, 147 to 149 °C.
For the compound `COC(=S)C(=Cc1ccccc1)N1CC(N2C(=O)c3ccccc3C2=O)C1=O` (stereo unspecified), the melting point fell in the range of 170 to 171 °C.
`Cc1ccc(C2COc3c(C)c(C)c(NC(=O)CC(C)(C)C)c(C)c32)cc1` (stereo unspecified) had a melting point of 176 to 177 °C.
Compound `COc1cccc(-c2nc(N)c(C#N)nc2-c2ccc(=O)n(C(C)C)c2)c1` came in with a melting point of 192 °C.
For the compound `O=C(O)Cc1ccc(NC(=O)C(COc2cccc(Cl)c2)NS(=O)(=O)c2ccc(Cl)cc2)cc1` (racemic), the melting point lay in the range of 220 to 221 °C.
With `CC(C)CC1(SCCCN=[N+]=[N-])c2c([nH]c(=O)n(C)c2=O)SC1Cc1cccc2ccccc12` (stereo unspecified), the melting point fell in the range of 94 to 96 °C.
Consider `CC1(C)[C@@H](C=C(F)F)[C@@H]1C(=O)OCc1c(F)c(F)c(F)c(-c2ccccc2)c1F` (relative stereo), for which the melting point was in the range of 69 to 72 °C.
With `CC(C)(C)c1cc(C(=O)c2cccs2)cc(CN2CCSCC2)c1O` the figure was 165 to 166 °C; with `CC(C)Cn1c(=O)n(C)c(=O)c2c(OCCCO)c(Cc3cccnc3)sc21`, 111 to 112 °C.
`CCOc1ccc(C2=NNC(=O)CC2)c(OCC)c1` showed a melting point of 148 to 150 °C.
With `CC(C)Oc1cc(OC(C)C)c2c(=O)cc(Sc3ccc(O)cc3)oc2c1` the figure was 234 to 236 °C; with `Cc1nnc(-c2ccccc2F)n2nc(OCc3cn(C)nn3)c(-c3ccsc3)c12`, 181 to 186 °C.
For the compound `CN(C)S(=O)(=O)NCC(C)(C)N`, the melting point was 77 to 78 °C.
With `CNC(=O)Cn1c(-c2ccc(Cl)cc2)nc2ccc(Cl)nc21` the figure was over 250 °C; with `O=C(O)C=Cc1ccc(OCCC(c2ccccc2)(c2ccccc2)c2ccccc2)cc1`, 207 to 209 °C.
Compound `CCCCCCCCCCCCc1ccc(S(=O)(=O)Nc2nnc(C(=O)OCC)s2)cc1` showed a melting point of 96 to 97 °C.
With `O=C(O)CCCCCCCNC(=O)C(CS)Cc1ccccc1` (stereo unspecified) the figure was 81 to 83 °C.
`CC(=NO)c1cccc(C(F)(F)F)c1`: the melting point is 63 to 65 °C.
`Cn1cc(-c2cc3cccnc3[nH]2)c2cc(C(=O)NCCN3CCOCC3)ccc21` displayed a melting point of 268 to 270 °C.
With `COc1cc(NC(=O)CCCCCN2CCN(CCO)CC2)c2nccc(C)c2c1` the figure was 88 to 90 °C; with `CCn1ncc2c(-c3cncc(C)c3)c(C(=O)NCc3ccc(OC)cc3)c(-c3ccccc3)nc21`, 203 to 204 °C.
Then `CC(Oc1ncn(-c2cccc(Cl)c2)n1)C(=O)O` (stereo unspecified), with 197 to 199 °C.
As to `O=C1CCCc2[nH]c(=O)ccc21`, the melting point fell in the range of 302 to 303 °C.
Compound `Cc1cccc(N(C)C(=O)NC2N=C(c3ccccc3F)c3ccccc3N(CC(=O)N3CC4CCC(CC4)C3)C2=O)c1` (racemic) yielded a melting point of 207 to 212 °C.
Regarding `CON=C(C(=O)OC)c1ccccc1COc1ccc2c(c1)OCC2=O`, the melting point was 134 to 137 °C.
`CC(=O)OC1CSC(Oc2ccc(-c3ccco3)nc2)C(OC(C)=O)C1OC(C)=O` (stereo unspecified) had a melting point of 133 °C.
`CN1Cc2c(-c3nc(CCl)cs3)ncn2-c2ccccc2C1=O` showed a melting point of 248 to 249 °C.
With `NC(=O)CC[C@H](NC(=O)CCc1ccc(OCc2ccccc2)cc1OCc1ccccc1)C(=O)N1CCN(Cc2ccccc2)CC1` the figure was 145 to 147 °C; with `OCC(O)COc1cccc2cccnc12` (stereo unspecified), 193 to 194 °C; with `CC1(C)c2ccccc2C(C)(C)C1(S)CC(=O)O`, 159 to 161 °C.
`CC(C)N1CCN(c2ccc(OCC(O)CC(O)(Cn3cncn3)c3ccc(Cl)cc3Cl)cc2)CC1` (stereo unspecified): the melting point lay in the range of 131 to 132 °C.
The compound `O=C(C1CCN(S(=O)(=O)c2ccc(Br)cc2)CC1)N1CCC(c2ccncc2)CC1` yielded a melting point of 154 to 155 °C.
On to `CCOC(Nc1ccccc1)(OCC)C1(Cl)C=C(C)N=C(C(=O)c2ccc(Cl)cc2)C1` (stereo unspecified), for which the melting point is 134 to 135 °C.
